Measurements published in BindingDB's records for doi:10.1016/j.bmcl.2009.01.089 (Gsk, 2009).

Molecular target: T1, Gag-Pol polyprotein [1148-1435] (Human immunodeficiency virus 1, UniProt P04585)
T1 construct: 1148-1435
Assay: HIV Integrase Strand Transfer Scintillation Proximity Assay (SPA)
Description: Purified recombinant integrase was first combined in a complex with biotinylated donor DNA- streptavidin-coated SPA beads. The complex was preincubated with the test compound, and strand transfer was initiated with a radiolabeled target DNA substrate. After incubation, the incorporated radioactivity was read in a Wallac MicroBeta scintillation plate reader using a counting protocol that corrected for optical cross talk between wells.

Row | Structure (SMILES) | IC50 [nM] | IC50 (pH 7.2, 37 °C) [nM]
1 | NC(=O)c1nc(-c2nnc(Cc3ccc(F)cc3)o2)c(O)c2ncccc12 [7-{5-[(4-fluorophenyl)methyl]-1,3,4-oxadiazol-2-yl}-8-hydroxy-1,6-naphthyridine-5-carboxamide] | 100 | –
2 | Cc1ccc(S(=O)(=O)Nc2nc(-c3nnc(Cc4ccc(F)cc4)o3)c(O)c3ncccc23)cc1 [N-(7-{5-[(4-fluorophenyl)methyl]-1,3,4-oxadiazol-2-yl}-8-hydroxy-1,6-naphthyridin-5-yl)-4-methylbenzene-1-sulfonamide] | – | 42
